Measurements reported in patent US20230119764A1, “APPLICATION OF DIMETHYL BERBAMINE COMPOUND IN INHIBITION OF SARS-COV-2” (priority 2020, published 2023).
“Also recorded” adds a separate entry of the source.

Tests used:
[1] = system: SARS-CoV-2 virus (nCoV-2019BetaCoV/Wuhan/WIV04/2019 isolate); test: EC50 by nucleic acid quantification on Vero cells (Example 3), quantitative RT-PCR; type: cell-based
[2] = system: SARS-CoV-2 virus (nCoV-2019BetaCoV/Wuhan/WIV04/2019 isolate); test: microbe, parasite or virus in culture; type: cell-based; settings: for Copy number of viral genome (MOI = 0.01): MOI 0.01, Vero E6 supernatant; for Copy number of viral genome (MOI = 0.01) / Copy number of viral genome (MOI = 0.05): 48 h, copy number per milliliter; for Copy number of viral genome (MOI = 0.05): MOI 0.05, Vero E6 supernatant; for SI (selectivity index): Example 1, drug pretreatment 1 hour; for Inhibition of SARS-CoV-2 (in words): Example 1, in vitro, Vero E6; for EC50: Severe acute respiratory syndrome coronavirus 2, Vero C1008, Example 1, drug pretreatment 1 hour
Vero-E6 cells = test: Drug cytotoxicity on cells, CellTiter-Glo kit; type: cell-based; settings: for Cell viability (% of vehicle control): Vero-E6, 24 hours
Description: (§1) 1.5.1 Vero E6 cell culture: 0.1 ml of 0.25% trypsin, 5 ml of 0.02% EDTA were added to a culture flask full of cells, the digestion was carried out at 37° C. for 5 minutes, then the digestion solution was discarded, the cell culture solution was added and then mixed by pipetting up-down. The cells were subcultured at 1:3, reached confluence within 3 days, formulated into 100,000 cells per ml, inoculated to a 96-well cell culture plate, 0.1 ml per well, and cultured at 37° C., 5% CO2 for 24 hours, and the cells grew into monolayer was used for experiment.
(§2) 1.5.2 Experiment of Drug Cytotoxicity on Cells:
(§3) The detection of drug cytotoxicity was determined using CellTiter-Glo kit (Promega). Specific steps were as follows:
(§4) (1) 1×10^4 Vero-E6 cells were inoculated in a 96-well plate and cultured at 37° C. for 8 hours.
(§5) (2) The stock solution of drug was diluted with MEM medium containing 2% FBS to the desired concentration, the original medium in the 96-well plate was discarded, and 100 μL of the drug-containing MEM medium was taken and added to the corresponding wells, so that the final concentrations of drug in the wells were those shown in Tables 1 to 3, respectively, and three replicate wells were made for each concentration. At the same time, a vehicle control (adding DMSO or PBS, and 2% FBS-containing MEM medium without drug to the cell wells) and a blank control (adding DMSO and 2% FBS-containing MEM medium to the wells without cells) were set. After the addition of drug, the cells were incubated at 37° C. for 24 hours.
(§6) (3) 100 μL of CellTiter-Glo solution (Promega) was added to the wells to be tested, and mixed by shaking for 2 min to fully lyse the cells, incubated at room temperature for 10 minutes, and readings of chemiluminescence signals […] were obtained on a microplate reader (purchased from Molecular Devices, model: SpectraMax M5). The cell viability was calculated by taking the readings into the following formula:
(§7) Cell viability (%)=(A(drug treatment group)−A(blank control))/(A(vehicle control)−A(blank control))×100%
(§8) where A represented the reading on the microplate reader.

[3] = Drug cytotoxicity on cells, CellTiter-Glo kit; type: cell-based; settings: African green monkey, Vero-E6 cells, 24 hours
Description: as §1, §2, §3, §4, §5, §6, §7, §8

[4] = system: SARS-CoV-2 virus (nCoV-2019BetaCoV/Wuhan/WIV04/2019 isolate); test: microbe, parasite or virus in culture; type: cell-based; settings: for Inhibition of SARS-CoV-2 (in words): Example 2, drug added after virus infection of cells; for SI (selectivity index): Example 2, no drug pretreatment; for EC50: Severe acute respiratory syndrome coronavirus 2, Vero C1008, Example 2, no drug pretreatment
SARS-CoV-2 virus = settings: previous studies, Wang et al., 2020; cited from earlier work
[5] = MOI 0.01, Vero E6, read-out: EC50
[6] = MOI 0.05, Vero E6, read-out: EC50

COc1ccc2cc1Oc1ccc(cc1)C[C@H]1c3cc(c(OC)cc3CCN1C)Oc1c(OC)c(OC)cc3c1[C@H](C2)N(C)CC3 [Tetrandrine, 6,6′,7,12-tetramethoxy-2,2′-dimethylberbamine]
Inhibition of SARS-CoV-2 (in words) ([1]; Example 3, cellular level, Vero cells): inhibitory effect | EC50 ([1]; Severe acute respiratory syndrome coronavirus 2, 48 h, Example 3, Vero cells, viral load 100 TCID50, two days after infection): 8.99 µM | Copy number of viral genome (MOI = 0.01) ([2]; 0.625 μM): 3357508000 | Copy number of viral genome (MOI = 0.05) ([2]; 0.625 μM): 10669558667 | Copy number of viral genome (MOI = 0.01) ([2]; 1.25 μM): 3336005167 | Copy number of viral genome (MOI = 0.05) ([2]; 1.25 μM): 7198143667 | Copy number of viral genome (MOI = 0.01) ([2]; 2.5 μM): 1707286250 | Copy number of viral genome (MOI = 0.05) ([2]; 2.5 μM): 7118504000 | Copy number of viral genome (MOI = 0.01) ([2]; 5 μM): 373861479 | Copy number of viral genome (MOI = 0.05) ([2]; 5 μM): 2477488500 | Copy number of viral genome (MOI = 0.01) ([2]; 10 μM): 1456943 | Copy number of viral genome (MOI = 0.05) ([2]; 10 μM): 8161310 | Copy number of viral genome (MOI = 0.01) ([2]; 20 μM): 1323393 | Copy number of viral genome (MOI = 0.05) ([2]; 20 μM): 4092752 | SI (selectivity index) ([2]; MOI 0.01): 14.33 | SI (selectivity index) ([2]; MOI 0.05): 8.51 | Inhibition of SARS-CoV-2 (in words) [2]: obvious inhibitory effects; also recorded: inhibitory activity | EC50 [2, 5]: 1710 nM | EC50 [2, 6]: 2880 nM | Cell viability (% of vehicle control) (Vero-E6 cells; 1.56 μM): 94.81 % of vehicle control | Cell viability (% of vehicle control) (Vero-E6 cells; 3.13 μM): 97.38 % of vehicle control | Cell viability (% of vehicle control) (Vero-E6 cells; 6.25 μM): 91.24 % of vehicle control | Cell viability (% of vehicle control) (Vero-E6 cells; 12.5 μM): 78.14 % of vehicle control | Cell viability (% of vehicle control) (Vero-E6 cells; 25 μM): 58.25 % of vehicle control | Cell viability (% of vehicle control) (Vero-E6 cells; 50 μM): 0.28 % of vehicle control | Cell viability (% of vehicle control) (Vero-E6 cells; 100 μM): 0.96 % of vehicle control | Toxicity on Vero E6 cells (in words) (Vero-E6 cells; all tested concentrations): good safety for the test cells in vitro | CC50 at 24 h [3]: 24.5 µM | Inhibition of SARS-CoV-2 (in words) [4]: inhibitory activity | Inhibition of SARS-CoV-2 (in words) ([4]; listed as tetrandrine): obvious inhibitory effects | SI (selectivity index) ([4]; MOI 0.01): 15.22 | SI (selectivity index) ([4]; MOI 0.05): 12.51 | EC50 [4, 5]: 1610 nM | EC50 [4, 6]: 1950 nM

CCN(CC)CCCC(C)Nc1ccnc2cc(Cl)ccc12 (centres unmarked) [Chloroquine phosphate, chloroquine phosphate]
Copy number of viral genome (MOI = 0.01) ([2]; 0.21 μM): 3451032833 | Copy number of viral genome (MOI = 0.05) ([2]; 0.21 μM): 5871676583 | Copy number of viral genome (MOI = 0.01) ([2]; 0.62 μM): 2407772083 | Copy number of viral genome (MOI = 0.05) ([2]; 0.62 μM): 5663562000 | Copy number of viral genome (MOI = 0.01) ([2]; 1.85 μM): 1500455250 | Copy number of viral genome (MOI = 0.05) ([2]; 1.85 μM): 4521430250 | Copy number of viral genome (MOI = 0.01) ([2]; 5.56 μM): 692991541 | Copy number of viral genome (MOI = 0.05) ([2]; 5.56 μM): 1814432458 | Copy number of viral genome (MOI = 0.01) ([2]; 16.67 μM): 11907226 | Copy number of viral genome (MOI = 0.05) ([2]; 16.67 μM): 52973263 | Copy number of viral genome (MOI = 0.01) ([2]; 50 μM): 1019575 | Copy number of viral genome (MOI = 0.05) ([2]; 50 μM): 1914748 | Inhibition of SARS-CoV-2 (in words) [2]: obvious inhibitory effects; also recorded: inhibitory activity | EC50 [2, 5]: 1540 nM | EC50 [2, 6]: 3770 nM | Cell viability (% of vehicle control) (Vero-E6 cells; 3.70 μM): 93.26 % of vehicle control | Cell viability (% of vehicle control) (Vero-E6 cells; 11.11 μM): 90.60 % of vehicle control | Cell viability (% of vehicle control) (Vero-E6 cells; 33.33 μM): 72.67 % of vehicle control | Cell viability (% of vehicle control) (Vero-E6 cells; 66.67 μM): 68.35 % of vehicle control | Cell viability (% of vehicle control) (Vero-E6 cells; 100 μM): 44.84 % of vehicle control | Cell viability (% of vehicle control) (Vero-E6 cells; 200 μM): 41.01 % of vehicle control | Cell viability (% of vehicle control) (Vero-E6 cells; 300 μM): 0.63 % of vehicle control | CC50 at 24 h ([3]; unit inferred): 92.9 µM | Inhibition of replication of SARS-CoV-2 virus (in words) (SARS-CoV-2 virus): can effectively inhibit the replication | Inhibition of SARS-CoV-2 (in words) [4]: obvious inhibitory effects; also recorded: inhibitory activity | EC50 [4, 5]: 4520 nM | EC50 [4, 6]: 3630 nM

CCC(CC)COC(=O)[C@H](C)N[P@](=O)(OC[C@H]1O[C@@](C#N)(c2ccc3c(N)ncnn23)[C@H](O)[C@@H]1O)Oc1ccccc1 [Remdesivir]
Copy number of viral genome (MOI = 0.01) ([2]; 0.12 μM): 3900176000 | Copy number of viral genome (MOI = 0.05) ([2]; 0.12 μM): 11594175000 | Copy number of viral genome (MOI = 0.01) ([2]; 0.37 μM): 1901120292 | Copy number of viral genome (MOI = 0.05) ([2]; 0.37 μM): 9405568167 | Copy number of viral genome (MOI = 0.01) ([2]; 1.11 μM): 19898611 | Copy number of viral genome (MOI = 0.05) ([2]; 1.11 μM): 545157271 | Copy number of viral genome (MOI = 0.01) ([2]; 3.33 μM): 243294 | Copy number of viral genome (MOI = 0.05) ([2]; 3.33 μM): 13188656 | Copy number of viral genome (MOI = 0.01) ([2]; 10 μM): 563645 | Copy number of viral genome (MOI = 0.05) ([2]; 10 μM): 3230111 | Copy number of viral genome (MOI = 0.01) ([2]; 30 μM): 975616 | Copy number of viral genome (MOI = 0.05) ([2]; 30 μM): 2594526 | SI (selectivity index) ([2]; MOI 0.01): 534.33 | SI (selectivity index) ([2]; MOI 0.05): 271.69 | EC50 ([2]; MOI 0.01, Vero E6): 300 nM | EC50 ([2]; MOI 0.05, Vero E6): 590 nM | Cell viability (% of vehicle control) (Vero-E6 cells; 3.13 μM): 97.16 % of vehicle control | Cell viability (% of vehicle control) (Vero-E6 cells; 6.25 μM): 99.17 % of vehicle control | Cell viability (% of vehicle control) (Vero-E6 cells; 12.5 μM): 99.62 % of vehicle control | Cell viability (% of vehicle control) (Vero-E6 cells; 25 μM): 95.71 % of vehicle control | Cell viability (% of vehicle control) (Vero-E6 cells; 50 μM): 90.20 % of vehicle control | Cell viability (% of vehicle control) (Vero-E6 cells; 100 μM): 70.09 % of vehicle control | Cell viability (% of vehicle control) (Vero-E6 cells; 200 μM): 40.05 % of vehicle control | CC50 at 24 h [3]: 160 µM | SI (selectivity index) ([4]; MOI 0.01): 696.96 | SI (selectivity index) ([4]; MOI 0.05): 258.55 | EC50 ([4]; MOI 0.01, Vero E6): 230 nM | EC50 ([4]; MOI 0.05, Vero E6): 620 nM
